From patent US7629368B2, “Nitroderivatives as drugs for diseases having an inflammatory basis” (Nicox S.A., priority 2000, dated 2009)

Assays:
[1] = system: human epithelial cellular lines of the prostate cancer and of the bladder cancer; assay: Antiproliferative activity in prostate and bladder cancer lines, summary in words; type: cell-based
Description: (§1) The experiment was carried out by using three human epithelial cellular lines of the prostate cancer (PNT1A; LLNCaP; PC3) and three human epithelial cellular lines of the bladder cancer (T24; 647V; 1207), the various types of cellular lines are identified on the basis of the characteristics, in particular of the aggressiveness, of the cancerous process.
(§2) The cancerous cells are sown, with an initial concentration of 20,000 cells/cm^2, in plates having 96 wells with a cellular culture medium RPMI added with foetal bovine serum 5% and L-Glutamine 1%. Solutions in dimethylsulphoxide of the tested compounds at three different concentrations (10^−6 M; 10^−5M; 10^−4M) or the carrier (DMSO 1%) are added to the culture medium. 4 days after the treatment the cellular growth was measured by the method with MTT (3-[4,5-dimethylthiazol-2-yl]-2,5-diphenyltetrazolium bromide) de-scribed by Turner in: Turner T., Chen P., Goodly L. J., Wells A. Clin. Exp. Metastasis 1996, 14, 409-418. The results, reported in Table 3, are expressed as inhibition percentage of the cellular proliferation determined by measuring the cellular proliferation in the cellular cultures treated with the tested compounds with respect to that measured in cellular cultures treated with dimethylsulphoxide 1%.
The compound of Ex. 7, reported in the Table with the simplified denomination of nitrooxybutyl ester of the aspirin der. with ferulic ac. is active, at 10^−5 concentrations, in prostate tumours as shown by the results obtained on the cellular lines LNCaP and PC3.

[2] = system: LNCaP human epithelial cells of prostate cancer; assay: Antiproliferative activity, MTT, prostate cancer line LNCaP; type: cell-based; conditions: 96 h, 4 days, vs DMSO 1%, read-out: Inhibition of the proliferative activity (%); for inhibition at 100 µM: 10^-4 M; for inhibition at 10 µM: 10^-5 M; for inhibition at 1 µM: 10^-6 M
Description: (§3) Determination of the Antiproliferative Activity of the Compounds of the Invention in Cancerous Epithelial Cells of Bladder and Prostate.
as §1, §2

[3] = system: PNT1A human epithelial cells of prostate cancer; assay: Antiproliferative activity, MTT, prostate cancer line PNT1A; type: cell-based; conditions: 96 h, 4 days, vs DMSO 1%, read-out: Inhibition of the proliferative activity (%); for inhibition at 100 µM: 10^-4 M; for inhibition at 10 µM: 10^-5 M; for inhibition at 1 µM: 10^-6 M
Description: as §3, §1, §2

[4] = system: Human adenocarcinoma (HT29) cells; assay: Antiproliferative activity in cancerous cells, cellular growth by haemocytometer; type: cell-based; conditions: 96 hours, controls = 100, read-out: Proliferation %
Description: Determination of the Antiproliferative Activity of the Compounds of the Invention in Cancerous Cells.
Human adenocarcinoma (HT29) cells taken from colon affected by cancerous process were transferred into plates with 24 wells containing a cellular culture medium formed by 10% of foetal bovine serum, penicillin (50 U/ml), streptomycin ([…]) and PEG 400 (polyethylenglycol). After 24 hours a part of the plates is inoculated with the tested compounds dissolved in the carrier (PEG 400). 96 hours after the inoculation of the compounds the cellular growth was measured by haemocytometer. The results, reported in Table 2, are expressed as percentage of the cellular proliferation with respect to the controls.

[5] = system: PC3 human epithelial cells of prostate cancer; assay: Antiproliferative activity, MTT, prostate cancer line PC3; type: cell-based; conditions: Epithelial cell, 96 h, 4 days, vs DMSO 1%, read-out: Inhibition of the proliferative activity (%); for inhibition at 100 µM: 10^-4 M; for inhibition at 10 µM: 10^-5 M; for inhibition at 1 µM: 10^-6 M
Description: as §3, §1, §2

[6] = system: 647V human epithelial cells of bladder cancer; assay: Antiproliferative activity, MTT, bladder cancer line 647V; type: cell-based; conditions: 96 h, 4 days, vs DMSO 1%, read-out: Inhibition of the proliferative activity (%); for inhibition at 100 µM: 10^-4 M; for inhibition at 10 µM: 10^-5 M; for inhibition at 1 µM: 10^-6 M
Description: as §3, §1, §2

[7] = system: 1207 human epithelial cells of bladder cancer; assay: Antiproliferative activity, MTT, bladder cancer line 1207; type: cell-based; conditions: Epithelial cell, 96 h, 4 days, vs DMSO 1%, read-out: Inhibition of the proliferative activity (%); for inhibition at 100 µM: 10^-4 M; for inhibition at 10 µM: 10^-5 M; for inhibition at 1 µM: 10^-6 M
Description: as §3, §1, §2

[8] = system: T24 human epithelial cells of bladder cancer; assay: Antiproliferative activity, MTT, bladder cancer line T24; type: cell-based; conditions: Epithelial cell, 96 h, 4 days, vs DMSO 1%, read-out: Inhibition of the proliferative activity (%); for inhibition at 100 µM: 10^-4 M; for inhibition at 10 µM: 10^-5 M; for inhibition at 1 µM: 10^-6 M
Description: as §3, §1, §2

[9] = system: liver injury induced by concanavalin A; assay: Protection from liver injury induced by concanavalin A; type: in vivo; conditions: ip; plasmatic glutamic-pyruvic transaminase vs treated control group (=100); 200 mg/kg intraperitoneal; 8 hours after concanavalin A 0.3 mg/rat i.v.
Description: Determination of the capability of the compounds of the invention to protect the animals from the liver injury induced by concanavalin A.
The model in vivo used in the present example has been described in Tiegs G, Hentshel J, A Wendel. A T cell-dependent experimental liver injury in mice induced by Concanavalin A. J. Clin. Invest. 1992; 90:196-203.
The animals ([…] of Swiss stock weighing about 20 g) are divided in groups of at least No. 10 animals for group.
The animals receive concanavalin and solvent (treated control group), solvent (polyethylene glycol 400-untreated control group), concanavalin and tested compound dissolved in the solvent (treated groups).
Rats are treated intravenously with concanavalin A (0.3 mg/rat), and after 5 minutes they receive by intraperitoneal injection the tested compounds, at the doses reported in Table 1, dissolved in polyethylenglycol 400.
Eight hours after the concanavalin A injection all the animals were sacrificed and the blood collected and examined. The data, reported in Table 1, are expressed as value of the plasmatic glutamic-pyruvic transaminase percentage of the animals treated with the tested compound with respect to the animals of the treated control group.

| SMILES | inhibition at 100 µM [2] [%] | inhibition at 10 µM [2] [%] | inhibition at 1 µM [2] [%] | inhibition at 100 µM [3] [%] | inhibition at 10 µM [3] [%] | inhibition at 1 µM [3] [%] | inhibition at 100 µM [5] [%] | inhibition at 10 µM [5] [%] | inhibition at 1 µM [5] [%] | inhibition at 100 µM [6] [%] | inhibition at 10 µM [6] [%] | inhibition at 1 µM [6] [%] | inhibition at 100 µM [7] [%] | inhibition at 10 µM [7] [%] | inhibition at 1 µM [7] [%] | inhibition at 100 µM [8] [%] | inhibition at 10 µM [8] [%] | inhibition at 1 µM [8] [%] | also measured |
| --- | --- | --- | --- | --- | --- | --- | --- | --- | --- | --- | --- | --- | --- | --- | --- | --- | --- | --- | --- |
| COc1cc(/C=C/C(=O)OCCCCO[N+](=O)[O-])ccc1OC(=O)c1ccccc1OC(C)=O [Ex. 7, trans-3-[4-[2-(acetyloxy)benzoyloxy]-3-methoxyphenyl]-2-propenoic acid 4-(nitrooxy)butyl ester] | 81 | 47 | 20 | 72 | 0 | 0 | 69 | 30 | 1 | 50 | 0 | 0 | 82 | 24 | 4 | 55 | 0 | 2 | activity in prostate tumours (in words) ([1]; 10^-5 concentrations, cellular lines LNCaP and PC3): active; activity at 300 µM ([4]; HT-29, 300 μM): 50% |
| CC(=O)Oc1ccccc1C(=O)Oc1ccc(CO[N+](=O)[O-])cc1 [Ex. 6, 2-(acetyloxy)benzoic Acid 4-(nitrooxymethyl)phenyl ester] | – | – | – | – | – | – | – | – | – | – | – | – | – | – | – | – | – | – | activity at 10 µM ([4]; HT-29, 10 μM): 0%; melting point: 86 to 88 °C |
| CC1=C(CC(=O)OCCCCO[N+](=O)[O-])c2cc(F)ccc2/C1=C\c1ccc([S+](C)[O-])cc1 (stereo not shown) [Ex. 18] | 88 | 74 | 17 | 81 | 38 | 3 | 74 | 68 | 5 | 92 | 80 | 9 | 88 | 74 | 0 | 93 | 82 | 0 | inhibitory effect on the proliferation of all kinds of cancerous cells examined (in words) ([1]; 10^-5 M, all six prostate and bladder lines): strong inhibitory effect; response vs control in vivo at 200 mg/kg [9]: 18%; activity at 50 µM ([4]; HT-29, 50 μM): 0% |
